The values below are quoted from earlier work in patent US20250099360A1 (Goodier Cosmetics, LLC, priority 2023, published 2025).

In this data set the test system is UV-B-induced lipid peroxidation. The following applies: UV-B radiation.

With `CCCCCCCCCCCCCCCC(=O)OC[C@H](O)[C@H]1OC(=O)C(O)=C1O` [ascorbyl palmitate], the “effect on UV-B-induced lipid peroxidation” value is “promotes UV-B-induced lipid peroxidation”.
